Assay results as given in article PMC4188581 (PLoS ONE, 2014).
Ends that are not written are not given here.

Assays:
CDK2 = CDK2 (Homo sapiens, UniProt P24941); assay: Surface Plasmon Resonance (SPR) peptide binding assay; conditions: for Ka1 / Ka2 / Kd1 / Kd2: two-state model
Procedure: Data were fitted globally by using the standard two state models provided by Biacore T200 Software v2.0.
Single-cycle kinetics experiments were performed with a T200 apparatus. The experiments were done on S-CM5 sensor chips coated with 6000 RU of CDK2. A flow cell left blank was used for double-referencing of the sensorgrams. Binding experiments were performed in standard PBS-P buffer with 60 µM ATP as running buffer (10 mM NaH2PO4/Na2HPO4, 150 mM NaCl, 60 µM ATP and 0.05% surfactant P20, pH 7.4) at 25°C with a flow rate of 30 µl/min. The peptide samples were prepared in the running buffer, and were injected.
Single-cycle kinetics assay were performed using the standard SCK method implemented by the T200 Control Software. In single-cycle analysis, the analyte is injected with increasing concentrations in a single cycle. The surface is not regenerated between injections. A blank injection of buffer only was subtracted from each curve, and reference sensorgrams were subtracted from experimental sensorgrams to yield curves representing specific binding. Data were fitted globally by using the standard two-state model provided by T200 Software v2.0. The data shown are representative of at least three independent experiments.

CDK2/Cyclin E complex = molecular target: T1, CDK2/Cyclin E complex (Homo sapiens, UniProt P24941); assay: Cyclin E immunoprecipitation and Western blot for CDK2 (complex dissociation); assay type: biochemical; conditions: 10 µM peptide, C81 fractionated cell extracts
T1 construct: endogenous in cells; host or cells: C81 (HTLV-1-infected T-cell line), size-exclusion fractions 28-31 of whole cell lysate
Procedure: This is discussed below by the kinase activity experiment.
(§1) B) Immunoprecipitated Cyclin E samples in the presence of peptides were assessed for kinase activity. Histone H1 (1 µg/reaction) was added to each reaction tube along with 2 µl of (γ-32P) ATP (3000 Ci/mmol). Reactions were incubated at 37°C for 30 min and stopped by the addition Laemmli buffer. The samples were separated on a 4–20% Tris–Glycine gel. Samples were ran on a gel, dried, and exposed to a PhosphorImager cassette and analyzed using Molecular Dynamic’s ImageQuant Software.
C81 whole cell lysate (5 mg) was fractionated on a Superose 6 HR 10/30 column (Amersham Biosciences, Piscataway, NJ) in Buffer D (20 mM HEPES (pH 7.9), 0.05 M KCl, 0.2 mM EDTA, 0.5 mM PMSF, 0.05 DTT, and 20% Glycerol). Flow-through was collected at 0.5 ml for 50 fractions.
The pooled C81 extracts (250 µg each) were combined with 10 µM of each respective peptide. Cyclin E antibody (Santa Cruz, sc-198) was added to each reaction tube (10 µl, 2 µg), the reaction mixture was brought up to 500 µl with TNE50+0.1% NP-40 (100 mM Tris, pH 8.0; 50 mM NaCl; 1 mM EDTA, 0.1% Nonidet P-40) and was allowed to incubate while rotating overnight at 4°C. α-IgG was added to extract as a negative control, and an IP was performed in the absence of competing peptide, acting as a positive control. […]

CDK2/Cyclin complex = molecular target: T2, CDK2/Cyclin complex (Homo sapiens, UniProt P24941); assay: Kinase assay of immunoprecipitated Cyclin E samples with Histone H1; assay type: biochemical; conditions: 10 µM peptide, Histone H1 substrate
T2 construct: endogenous in cells; host or cells: C81 (HTLV-1-infected T-cell line), size-exclusion fractions 28-31 of whole cell lysate
Procedure: as §1
The levels of phosphorylation of H1 are shown in the presence of the six designed peptides.
Immunoprecipitated samples were assessed for kinase activity. After the final TNE50+0.1% NP-40 wash, beads were washed with kinase buffer (50 mM HEPES, 10 mM MgCl2, 5 mM MnCl2, 1 mM DTT, 50 mM NaF, 0.2 mM Na3VO4 and one complete tablet of protease cocktail inhibitor/50 ml buffer) to equilibrate the reaction. Histone H1 (1 µg) was added to each reaction tube along with the γ-32P ATP (2 µl at 3000 Ci/mmol). Reactions were incubated at 37°C for 30 min and stopped by the addition of 15 µl Laemmli buffer. The samples were separated by reducing SDS-PAGE on a 4–20% Tris–Glycine gel. Gels were stained with Coomassie blue, destained, and then dried for 2 hours. Following drying, the gels were exposed to a PhosphorImager cassette and analyzed utilizing Molecular Dynamic’s ImageQuant Software.

Compound | mechanism of binding (SPR response curve) (CDK2) | Ka1 (CDK2; with 60 µM ATP) [M⁻¹ s⁻¹] | Ka2 (CDK2; with 60 µM ATP) | Kd1 (CDK2; with 60 µM ATP) | Kd2 (CDK2; with 60 µM ATP) | Ka1 (CDK2; without ATP) [M⁻¹ s⁻¹] | Ka2 (CDK2; without ATP) | Kd1 (CDK2; without ATP) | Kd2 (CDK2; without ATP) | dissociation of CDK2 from the CDK2/Cyclin complex (CDK2/Cyclin E complex) | kinase activity (phosphorylation of H1) (CDK2/Cyclin complex) | Kd (CDK2; without ATP) [µM]
CC(C)C[C@H](NC(=O)[C@H](C)NC(=O)[C@H](C)NC(=O)[C@@H](N)CC(=O)O)C(=O)N[C@H](C(=O)O)[C@@H](C)O [DAALT, NH2-D-A-A-L-T-OH] | fast binding and fast dissociation | 612.9 ± 13.0 | 34.6±1.0 E-3 1/Ms | 101.2±4.3 E-3 1/s | 10.1±0.1 E-3 1/s | 434.1 ± 6.6 | 14.1±0.4 E-4 1/Ms | 23.2±0.4 E-3 1/s | 1.3±0.6 E-5 1/s | dissociation of CDK2 from the CDK2/Cyclin complex | clear loss of kinase activity | –
CC(C)C[C@H](NC(=O)[C@H](C)NC(=O)[C@H](C)NC(=O)[C@@H](N)Cc1ccc(O)cc1)C(=O)N[C@@H](CCC(N)=O)C(=O)O [YAALQ, NH2-Y-A-A-L-Q-OH] | fast binding and fast dissociation | – | 12.3±0.3 E-3 1/Ms | 53.9±1.4 E-3 1/s | 1.6±0.1 E-3 1/s | – | 9.0±0.3 E-3 1/Ms | 84.0±2.7 E-3 1/s | 2.2±0.1 E-3 1/s | weak complex disassociation | clear loss of kinase activity | –
LAALS [LAALS, reference compound] | – | – | – | – | – | – | – | – | – | – | – | 8
